Reference: US5593970A, “Heterocyclic anthracycline analogs” (priority 1994, dated 1997)
Where two headings read alike, the source gives them in different places. Each block holds one compound with its values, some of them ahead of it.

How the values were obtained:
[1] = system: HT29; experiment: Microculture tetrazolium assay; format: cell-based; conditions: read-out: IC50
[2] = system: MATB.WT; experiment: Soft agar colony formation disk diffusion assay; format: cell-based, rat
From the text: (§1) A more elaborate version of this fundamental assay, the soft agar colony formation disk diffusion assay was used. This assay defines the relative activity of one particular drug versus a tumoral cell line type. The effect of the test drug against tumoral cells could be measured by its inhibitory capacity against colony formation after the delivery of the compound, in different concentrations on an filter disk(4). A modified technique of this assay was used in order to investigate the antiproliferative activity of candidate compounds. Tumoral cells from solid tumors and ascitic lines were plated separately in a two layer agar matrix. Cell lines to be tested were suspended in an upper layer of 0.4% Noble agar (Difco#00142-01) in RPMI-1066 (Gibco#3201875) at a yield varying between 10^4 to 2×10^5 cells per 60 mm Petri dish. Plating efficiency was determined for each line in order to achieve an optimal number of colonies per dish. Plates were examined before drug administration to confirm a uniform dispersion of single cells. The bottom layer consisted of 0.8% Noble agar, 0.8% Tryptic Soy Broth (difco#0037001)in CMRL-1066/Fischer's. The bottom layers were used within 2 and 9 days of preparation. Plated dishes (bottom layer of agar, upper layer of cells and administered drug were incubated in humidified atmosphere at 37° C., 5% CO2 for 10-20 days depending upon the time necessary to observe adequate colonies (defined as a cell aggregate of more than 50 cells) both control and drug inhibited. Drugs were administered on a paper filter disk (Whatman No. 1) of 6.5 mm diameter placed on the upper layer at 1/3 distance from the edge of the dish. The anti-clonogenic activity of the compounds was measured as the zone of inhibition from the disk edge to the most proximal colonies. This zone of inhibition was checked on an inverted microscope (40×) and was measured with a micrometer mounted in the eyepiece. The ocular micrometer was calibrated with a stage micrometer set for a particular combination of ocular and objective lenses. […] We made a modification of the initial technique by not plating a solid tumor and a leukemia simultaneously in the same Petri dish. Anti-clonogenic tests performed on leukemia cell line have helped in the discovery of the majority of current clinically used cytostatic drugs. Our tests on solid tumor lines (animal or human) may help define active compounds with solid tumor specificity. […] Murine tumors were maintained IN VIVO in order to diminish the selection of subpopulations of cells normally present in the heterogenous IN VIVO tumor. The actual drug sensitivity assay was done IN VITRO. For these experiments cells from freshly excised tumors or from ascitic fluids were maintained in RPMI-1066. Both compounds were dissolved in DMSO (1 mg/100 ul) and brought to final volume (250 ul) with Millipore deionized sterile water. Further dilutions were made with […] volume of 25 ul of freshly prepared solution was placed on the filter disk and allowed to dry.

[3] = system: MATB/ADR; experiment: Soft agar colony formation disk diffusion assay; format: cell-based, rat
From the text: as §1

[4] = system: HT29; experiment: Soft agar colony formation disk diffusion assay; format: cell-based, human
From the text: A more elaborate version of this fundamental assay, the soft agar colony formation disk diffusion assay was used. […] The effect of the test drug against tumoral cells could be measured by its inhibitory capacity against colony formation after the delivery of the compound, in different concentrations on an filter disk(4). A modified technique of this assay was used in order to investigate the antiproliferative activity of candidate compounds. Tumoral cells from solid tumors and ascitic lines were plated separately in a two layer agar matrix. Cell lines to be tested were suspended in an upper layer of 0.4% Noble agar (Difco#00142-01) in RPMI-1066 (Gibco#3201875) at a yield varying between 10^4 to 2×10^5 cells per 60 mm Petri dish. Plating efficiency was determined for each line in order to achieve an optimal number of colonies per dish. […] The bottom layer consisted of 0.8% Noble agar, 0.8% Tryptic Soy Broth (difco#0037001)in CMRL-1066/Fischer's. The bottom layers were used within 2 and 9 days of preparation. Plated dishes (bottom layer of agar, upper layer of cells and administered drug were incubated in humidified atmosphere at 37° C., 5% CO2 for 10-20 days depending upon the time necessary to observe adequate colonies (defined as a cell aggregate of more than 50 cells) both control and drug inhibited. Drugs were administered on a paper filter disk (Whatman No. 1) of 6.5 mm diameter placed on the upper layer at 1/3 distance from the edge of the dish. The anti-clonogenic activity of the compounds was measured as the zone of inhibition from the disk edge to the most proximal colonies. This zone of inhibition was checked on an inverted microscope (40×) and was measured with a micrometer mounted in the eyepiece. The ocular micrometer was calibrated with a stage micrometer set for a particular combination of ocular and objective lenses. […] We made a modification of the initial technique by not plating a solid tumor and a leukemia simultaneously in the same Petri dish. […] HUMAN TUMORS. […] LS180 (13) and BE1(14) were obtained from the Oncology Dept. of the Montreal General Hospital. […] Cell lines were routinely passaged twice a week by trypsinization and maintained in 25, or 75-sq. cm Falcon Plastic flasks at 37° C., 5% CO2 in humidified atmosphere. Both compounds were dissolved in DMSO (1 mg/100 ul) and brought to final volume (250 ul) with Millipore deionized sterile water. Further dilutions were made with […] volume of 25 ul of freshly prepared solution was placed on the filter disk and allowed to dry.

[5] = system: LOX; experiment: Microculture tetrazolium assay; format: cell-based; conditions: read-out: IC50
[6] = system: SKVLB; experiment: Microculture tetrazolium assay; format: cell-based; conditions: for VLB/OV3: IC50 ratio SKVLB/SKOV3; for IC50: SKVLB, read-out: IC50
[7] = system: P388/ADR; experiment: Soft agar colony formation disk diffusion assay; format: cell-based, murine
From the text: as §1

[8] = system: P388; experiment: Soft agar colony formation disk diffusion assay; format: cell-based, murine
From the text: as §1

[9] = system: B16; experiment: Soft agar colony formation disk diffusion assay; format: cell-based, murine
From the text: as §1

[10] = system: M5076; experiment: Soft agar colony formation disk diffusion assay; format: cell-based, murine
From the text: as §1

Compound: CC(=O)Oc1c2c(c(O)c3ccccc13)C(=O)C1=C(C2=O)C(O)OC(C(C)=O)C1 (centres unmarked) [BCH-704, Methyl(11-acetoxy-1,6-dihydroxy-5,12-dioxo-3,4,5,12-tetrahydroanthraceno[2,3-c]pyran-3-yl)ketone]
IC50 ([1]; Homo sapiens, HT-29, HT29): 10.7 µM | zone of inhibition ([2]; 10 μg/DISK): 198.5 ± 21.9 Zone Units | zone of inhibition ([2]; 100 μg/DISK): 414.8 ± 25.8 Zone Units | cross resistance with adriamycin, MATB/ADR vs MATB.WT [3]: greater cytotoxicity in the resistant breast tumor cell line | zone of inhibition ([3]; 10 μg/DISK): 320.2 ± 64.7 Zone Units | zone of inhibition ([3]; 100 μg/DISK): 527.4 ± 72.9 Zone Units | zone of inhibition ([4]; 10 μg/DISK): 39.6 ± 12.9 Zone Units | zone of inhibition ([4]; 100 μg/DISK): 152.5 ± 43.1 Zone Units | IC50 [5]: 28.3 µM | VLB/OV3 [6]: 0.84 | IC50 [6]: 13.8 µM

Compound: 3-Carbomethoxy-1,11-dihydroxy-1,2,3,4-tetrahydro-(2-oxygen)naphthacene-5,12-dione 3-Carbomethoxy-1,6-dihydroxy-1,2,3,4-tetrahydro-(2-oxygen)naphthacene-5,12-dione [BCH-711]
zone of inhibition ([7]; 10 μg/DISK): 40.0 ± 20.0 Zone Units | zone of inhibition ([7]; 100 μg/DISK): 150.0 ± 30.0 Zone Units | zone of inhibition ([8]; 10 μg/DISK): 45.5 ± 21.9 Zone Units | zone of inhibition ([8]; 100 μg/DISK): 183.0 ± 0.0 Zone Units | zone of inhibition ([9]; 10 μg/DISK): 27.0 ± 4.2 Zone Units | zone of inhibition ([9]; 100 μg/DISK): 137.0 ± 21.2 Zone Units | zone of inhibition ([10]; 10 μg/DISK): 55.0 ± 8.4 Zone Units | zone of inhibition ([10]; 100 μg/DISK): 198.0 ± 21.2 Zone Units | IC50 ([1]; HT29): 5.68 µM | zone of inhibition ([2]; 10 μg/DISK): 27.0 ± 4.2 Zone Units | zone of inhibition ([2]; 100 μg/DISK): 137.0 ± 21.2 Zone Units | cross resistance with adriamycin, MATB/ADR vs MATB.WT [3]: greater cytotoxicity in the resistant breast tumor cell line | zone of inhibition ([3]; 10 μg/DISK): 45.5 ± 21.9 Zone Units | zone of inhibition ([3]; 100 μg/DISK): 107.0 ± 21.9 Zone Units | zone of inhibition ([4]; 10 μg/DISK): 27.0 ± 4.2 Zone Units | zone of inhibition ([4]; 100 μg/DISK): 91.5 ± 43.1 Zone Units | IC50 [5]: 11.5 µM | VLB/OV3 [6]: 1.22 | IC50 [6]: 13.5 µM

Compound: CCOC(=O)[C@@H]1CC2=C(C(=O)c3cc4ccccc4c(O)c3C2=O)[C@@H](O[C@H]2C[C@H](NC(=O)C(F)(F)F)[C@H](O)[C@H](C)O2)O1 [BCH-681, (1'S,1R,3S)Ethyl[6-hydroxy-5,12-dioxo-1-(3'-trifuloroacetamido-1-daunosaminyl)-3,4,5,12-tetrahydroanthraceno(2,3-C)pyran-3-yl]formate]
IC50 ([1]; Homo sapiens, HT-29, HT29): 1.72 µM | zone of inhibition ([2]; 10 μg/DISK): 51.8 ± 4.3 Zone Units | zone of inhibition ([2]; 100 μg/DISK): 176.9 ± 8.6 Zone Units | cross resistance with adriamycin, MATB/ADR vs MATB.WT [3]: no cross resistance with adriamycin | zone of inhibition ([3]; 10 μg/DISK): 54.9 ± 8.6 Zone Units | zone of inhibition ([3]; 100 μg/DISK): 244.0 ± 43.1 Zone Units | zone of inhibition ([4]; 10 μg/DISK): 106.7 ± 21.5 Zone Units | zone of inhibition ([4]; 100 μg/DISK): 213.5 ± 43.1 Zone Units | IC50 [5]: 4.89 µM | VLB/OV3 [6]: 1.16 | IC50 [6]: 6.99 µM

Compound: C=CC1CC2=C(C(=O)c3cc4ccccc4c(O)c3C2=O)C(OC)O1 (centres unmarked) [BCH-712, 6-hydroxy-1-methoxy-1,2,3,4-tetrahydro-3-vinyl-(2-oxygen) naphthacene-5,12-dione]
zone of inhibition ([7]; 10 μg/DISK): 0 Zone Units | zone of inhibition ([7]; 100 μg/DISK): 42.5 ± 9.1 Zone Units | zone of inhibition ([8]; 10 μg/DISK): 6.1 ± 0.0 Zone Units | zone of inhibition ([8]; 100 μg/DISK): 70.0 ± 21.2 Zone Units | zone of inhibition ([9]; 10 μg/DISK): 0 Zone Units | zone of inhibition ([9]; 100 μg/DISK): 27.0 ± 4.2 Zone Units | zone of inhibition ([10]; 10 μg/DISK): 0 Zone Units | zone of inhibition ([10]; 100 μg/DISK): 158.0 ± 34.6 Zone Units | zone of inhibition ([2]; 10 μg/DISK): 21.0 ± 4.3 Zone Units | zone of inhibition ([2]; 100 μg/DISK): 76.0 ± 21.2 Zone Units | cross resistance with adriamycin, MATB/ADR vs MATB.WT [3]: no cross resistance with adriamycin | zone of inhibition ([3]; 10 μg/DISK): 0 Zone Units | zone of inhibition ([3]; 100 μg/DISK): 64.0 ± 4.2 Zone Units | zone of inhibition ([4]; 10 μg/DISK): 0 Zone Units | zone of inhibition ([4]; 100 μg/DISK): 55.0 ± 8.4 Zone Units

IC50 ([1]; HT29): 23.4 µM | IC50 [5]: 24.9 µM | IC50 [6]: 30.7 µM
Compound: CC(=O)Oc1c2c(c(O)c3ccccc13)C(=O)C1=C(CC(C(C)=O)OC1)C2=O (centres unmarked) [BCH-721]
zone of inhibition ([7]; 10 μg/DISK): 21.0 ± 21.2 Zone Units | zone of inhibition ([7]; 100 μg/DISK): 183.0 ± 86.2 Zone Units | zone of inhibition ([8]; 10 μg/DISK): 45.5 ± 21.9 Zone Units | zone of inhibition ([8]; 100 μg/DISK): 137.0 ± 21.2 Zone Units | zone of inhibition ([9]; 10 μg/DISK): 76.0 ± 21.2 Zone Units | zone of inhibition ([9]; 100 μg/DISK): 198.0 ± 21.2 Zone Units | zone of inhibition ([10]; 10 μg/DISK): 78.0 ± 18.3 Zone Units | zone of inhibition ([10]; 100 μg/DISK): 259.0 ± 21.2 Zone Units | zone of inhibition ([2]; 10 μg/DISK): 33.0 ± 4.2 Zone Units | zone of inhibition ([2]; 100 μg/DISK): 143.0 ± 12.7 Zone Units | zone of inhibition ([3]; 10 μg/DISK): 45.5 ± 21.9 Zone Units | zone of inhibition ([3]; 100 μg/DISK): 137.0 ± 21.2 Zone Units | zone of inhibition ([4]; 10 μg/DISK): 55.5 ± 8.0 Zone Units | zone of inhibition ([4]; 100 μg/DISK): 121.5 ± 43.1 Zone Units | VLB/OV3 [6]: 0.55

IC50 [6]: 6.38 µM
Compound: CCOC(=O)[C@H]1CC2=C(C(=O)c3cc4ccccc4c(O)c3C2=O)[C@H](O[C@H]2C[C@H](NC(=O)C(F)(F)F)[C@H](O)[C@H](C)O2)O1 [BCH-684, (1'S,1S,3R)Ethyl[6-hydroxy-5,12-dioxo-1-(3'-trifluoroacetamido-1-daunosaminyl)-3,4,5,12-tetrahydroanthraceno(2,3-C)pyran-3-yl]formate]
zone of inhibition ([2]; 10 μg/DISK): 131.3 ± 12.9 Zone Units | zone of inhibition ([2]; 100 μg/DISK): 366.0 ± 172.5 Zone Units | cross resistance with adriamycin, MATB/ADR vs MATB.WT [3]: no cross resistance with adriamycin | zone of inhibition ([3]; 10 μg/DISK): 122.0 ± 17.0 Zone Units | zone of inhibition ([3]; 100 μg/DISK): 320.2 ± 107.8 Zone Units | zone of inhibition ([4]; 10 μg/DISK): 137.2 ± 21.5 Zone Units | zone of inhibition ([4]; 100 μg/DISK): 170.8 ± 86.2 Zone Units | VLB/OV3 [6]: 1.52
